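Assay format: 96-well plates, 48-hour exposure. Here, GI50 denotes the concentration required for 50% inhibition of growth.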 Calls of active or inactive are those of the source. Cut-off read from the data, not from the text of the source: active = GI50 up to about 1.1 µM and inactive = higher.
Tests used:
Assay in all cases: DTP human tumour cell line panel, 48 h
786-0 = system: 786-0
A498 = system: A498
A549 = system: A549
ACHN = system: ACHN
BT-549 = system: BT-549
CAKI-1 = system: CAKI-1
CCRF-CEM = system: CCRF-CEM
COLO 205 = system: COLO 205
DU-145 = system: DU-145
EKVX = system: EKVX
HCC 2998 = system: HCC 2998
HCT-116 = system: HCT-116
HCT-15 = system: HCT-15
HOP-62 = system: HOP-62
HOP-92 = system: HOP-92
HT-29 = system: HT-29
IGROV-1 = system: IGROV-1
K562 = system: K562
KM12 = system: KM12
LOX IMVI = system: LOX IMVI
M14 = system: M14
MCF7 = system: MCF7
MDA-MB-231 = system: MDA-MB-231
MDA-MB-435 = system: MDA-MB-435
MDA-N = system: MDA-N
MOLT-4 = system: MOLT-4
Malme-3M = system: Malme-3M
NCI-H226 = system: NCI-H226
NCI-H23 = system: NCI-H23
NCI-H460 = system: NCI-H460
NCI-H522 = system: NCI-H522
NCI/ADR-RES = system: NCI/ADR-RES
OVCAR-3 = system: OVCAR-3
OVCAR-4 = system: OVCAR-4
OVCAR-5 = system: OVCAR-5
OVCAR-8 = system: OVCAR-8
PC-3 = system: PC-3
RPMI-8226 = system: RPMI-8226
RXF 393 = system: RXF 393
SF-268 = system: SF-268
SF-295 = system: SF-295
SF-539 = system: SF-539
SK-MEL-28 = system: SK-MEL-28
SK-MEL-2 = system: SK-MEL-2
SK-MEL-5 = system: SK-MEL-5
SK-OV-3 = system: SK-OV-3
SN12C = system: SN12C
SNB-19 = system: SNB-19
SNB-75 = system: SNB-75
SR = system: SR
SW-620 = system: SW-620
T47D = system: T47D
TK-10 = system: TK-10
U-251 = system: U-251
UACC-257 = system: UACC-257
UACC-62 = system: UACC-62
UO-31 = system: UO-31

O=C1NCC(NC(=O)C(F)(F)F)c2c(Br)sc(Br)c21 (stereo not drawn)
GI50 (786-0): > 100 µM (inactive) | GI50 (A498): > 100 µM (inactive) | GI50 (A549): > 100 µM (inactive) | GI50 (ACHN): > 100 µM (inactive) | GI50 (BT-549): > 100 µM (inactive) | GI50 (CAKI-1): > 100 µM (inactive) | GI50 (CCRF-CEM): > 100 µM (inactive) | GI50 (COLO 205): > 100 µM (inactive) | GI50 (DU-145): > 100 µM (inactive) | GI50 (EKVX): > 100 µM (inactive) | GI50 (HCC 2998): > 100 µM (inactive) | GI50 (HCT-116): > 100 µM (inactive) | GI50 (HCT-15): > 100 µM | GI50 (HOP-62): > 100 µM (inactive) | GI50 (HOP-92): > 100 µM (inactive) | GI50 (HT-29): > 100 µM (inactive) | GI50 (IGROV-1): > 100 µM (inactive) | GI50 (K562): > 100 µM (inactive) | GI50 (KM12): > 100 µM (inactive) | GI50 (LOX IMVI): > 100 µM (inactive) | GI50 (M14): > 100 µM (inactive) | GI50 (MCF7): > 100 µM (inactive) | GI50 (MDA-MB-231): > 100 µM (inactive) | GI50 (MDA-MB-435): > 100 µM (inactive) | GI50 (MDA-N): > 100 µM (inactive) | GI50 (MOLT-4): > 100 µM (inactive) | GI50 (Malme-3M): > 100 µM (inactive) | GI50 (NCI-H226): > 100 µM (inactive) | GI50 (NCI-H23): > 100 µM (inactive) | GI50 (NCI-H460): > 100 µM (inactive) | GI50 (NCI-H522): > 100 µM (inactive) | GI50 (NCI/ADR-RES): > 100 µM (inactive) | GI50 (OVCAR-3): > 100 µM (inactive) | GI50 (OVCAR-4): > 100 µM (inactive) | GI50 (OVCAR-5): > 100 µM (inactive) | GI50 (OVCAR-8): > 100 µM (inactive) | GI50 (PC-3): > 100 µM (inactive) | GI50 (RPMI-8226): > 100 µM (inactive) | GI50 (RXF 393): > 100 µM (inactive) | GI50 (SF-268): > 100 µM (inactive) | GI50 (SF-295): > 100 µM (inactive) | GI50 (SF-539): > 100 µM (inactive) | GI50 (SK-MEL-28): > 100 µM (inactive) | GI50 (SK-MEL-2): > 100 µM (inactive) | GI50 (SK-MEL-5): > 100 µM (inactive) | GI50 (SK-OV-3): > 100 µM (inactive) | GI50 (SN12C): > 100 µM (inactive) | GI50 (SNB-19): > 100 µM (inactive) | GI50 (SNB-75): 24.3 µM (inactive) | GI50 (SR): > 100 µM (inactive) | GI50 (SW-620): > 100 µM (inactive) | GI50 (T47D): > 100 µM (inactive) | GI50 (TK-10): > 100 µM (inactive) | GI50 (U-251): > 100 µM (inactive) | GI50 (UACC-257): > 100 µM (inactive) | GI50 (UACC-62): > 100 µM (inactive) | GI50 (UO-31): > 100 µM (inactive)

COC(=O)c1sc2ncc3c(c2c1N)CC(C)CC3 (stereo not drawn)
GI50 (786-0): 81.3 µM (inactive) | GI50 (A498): > 100 µM (inactive) | GI50 (A549): > 100 µM (inactive) | GI50 (ACHN): > 100 µM (inactive) | GI50 (BT-549): > 100 µM (inactive) | GI50 (CAKI-1): > 100 µM (inactive) | GI50 (CCRF-CEM): > 100 µM (inactive) | GI50 (COLO 205): > 100 µM (inactive) | GI50 (DU-145): > 100 µM (inactive) | GI50 (EKVX): > 100 µM (inactive) | GI50 (HCC 2998): > 100 µM (inactive) | GI50 (HCT-116): > 100 µM (inactive) | GI50 (HCT-15): > 100 µM | GI50 (HOP-62): > 100 µM (inactive) | GI50 (HOP-92): > 100 µM (inactive) | GI50 (HT-29): 67 µM (inactive) | GI50 (IGROV-1): > 100 µM (inactive) | GI50 (K562): > 100 µM (inactive) | GI50 (KM12): > 100 µM (inactive) | GI50 (LOX IMVI): 71.3 µM (inactive) | GI50 (M14): > 100 µM (inactive) | GI50 (MCF7): > 100 µM (inactive) | GI50 (MDA-MB-231): > 100 µM (inactive) | GI50 (MDA-MB-435): > 100 µM (inactive) | GI50 (MDA-N): > 100 µM (inactive) | GI50 (MOLT-4): > 100 µM (inactive) | GI50 (Malme-3M): > 100 µM (inactive) | GI50 (NCI-H226): > 100 µM (inactive) | GI50 (NCI-H23): > 100 µM (inactive) | GI50 (NCI-H460): > 100 µM (inactive) | GI50 (NCI-H522): > 100 µM (inactive) | GI50 (NCI/ADR-RES): > 100 µM (inactive) | GI50 (OVCAR-3): > 100 µM (inactive) | GI50 (OVCAR-4): > 100 µM (inactive) | GI50 (OVCAR-5): > 100 µM (inactive) | GI50 (PC-3): > 100 µM (inactive) | GI50 (RPMI-8226): > 100 µM (inactive) | GI50 (RXF 393): 70.6 µM (inactive) | GI50 (SF-268): > 100 µM (inactive) | GI50 (SF-295): > 100 µM (inactive) | GI50 (SF-539): > 100 µM (inactive) | GI50 (SK-MEL-28): > 100 µM (inactive) | GI50 (SK-MEL-2): > 100 µM (inactive) | GI50 (SK-MEL-5): > 100 µM (inactive) | GI50 (SK-OV-3): > 100 µM (inactive) | GI50 (SN12C): > 100 µM (inactive) | GI50 (SNB-19): > 100 µM (inactive) | GI50 (SNB-75): 41.4 µM (inactive) | GI50 (SR): > 100 µM (inactive) | GI50 (SW-620): > 100 µM (inactive) | GI50 (T47D): > 100 µM (inactive) | GI50 (TK-10): > 100 µM (inactive) | GI50 (U-251): > 100 µM (inactive) | GI50 (UACC-257): > 100 µM (inactive) | GI50 (UACC-62): > 100 µM (inactive) | GI50 (UO-31): > 100 µM (inactive)

— ChEMBL document CHEMBL1201862, “PubChem BioAssay data set” (2004)
